# Like-named read-outs stand apart in the source and are kept apart here.
# How the values were obtained:
# [1] = test system: Acinetobacter calcoaceticus; test: MIC, 2-fold dilution method in micro-well plate, A. calcoaceticus; format: cell-based; details: ATCC8090, read-out: Minimum Inhibitory Concentration
# [2] = test system: Citrobacter freundii ATCC 8090; test: MIC, 2-fold dilution method in micro-well plate, C. freundii; format: cell-based; details: ATCC8090, read-out: Minimum Inhibitory Concentration
# Method in brief: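 Broth 2-fold microdilution; compounds tested as hydrochloride salts in sterile water. Inoculum from overnight BHI broth culture at 37° C., final about (10^5-10^6)/2 cfu/ml per well; MIC read after incubation at 37° C.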
# [3] = test system: Enterobacter aerogenes ATCC 13048; test: MIC, 2-fold dilution method in micro-well plate, E. aerogenes; format: cell-based; details: Klebsiella aerogenes; E. aerogenes ATCC13048, 37° C.; read-out: Minimum Inhibitory Concentration
# Method in brief: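 Two-fold broth microdilution of hydrochloride salts dissolved in sterile water (10 mg/ml stock). Inoculum from overnight BHI culture at 37° C, about (10^5–10^6)/2 cfu/ml final in well. MIC read after incubation at 37° C.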
# Enterobacter cloacae = test: MIC, 2-fold dilution method in micro-well plate, E. cloacae; format: cell-based; details: read-out: Minimum Inhibitory Concentration
# [4] = test system: Escherichia coli ATCC 25922; test: MIC, 2-fold dilution method in micro-well plate, E. coli; format: cell-based; details: ATCC25922, read-out: Minimum Inhibitory Concentration
# Method in brief: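 Broth two-fold microdilution of hydrochloride salts in water against E. coli ATCC 25922 grown overnight in BHI at 37° C. Final inoculum about (10^5 -10^6)/2 cfu/ml; after incubation at 37° C, MIC was recorded.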
# [5] = test system: Haemophilus influenza ATCC 35056; test: MIC, 2-fold dilution method in micro-well plate, H. influenzae; format: cell-based; details: H. influenzae ATCC35056, 37° C.; read-out: Minimum Inhibitory Concentration
# Method in brief: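 MIC by 2-fold broth microdilution; compounds as hydrochloride salts in sterile water (10 mg/ml stock). Overnight BHI culture inoculated at about (10^5-10^6)/2 cfu/ml final; MIC read after cultivation at 37° C.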
# [6] = test system: Klebsiella pneumoniae ATCC 13883; test: MIC, 2-fold dilution method in micro-well plate, K. pneumoniae; format: cell-based; details: ATCC13883, read-out: Minimum Inhibitory Concentration
# Method in brief: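 Two-fold broth dilution in micro-wells of compound as hydrochloride salt in water. Overnight BHI culture at 37 °C inoculated to about (10^5–10^6)/2 cfu/ml final. MIC read after incubation at 37 °C.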
# [7] = test system: Proteus vulgaris ATCC 13315; test: MIC, 2-fold dilution method in micro-well plate, P. vulgaris; format: cell-based; details: P. vulgaris ATCC13315, 37° C., read-out: Minimum Inhibitory Concentration
# Method in brief: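 Two-fold broth dilution in micro-well plates; compounds tested as hydrochloride salts in water. Bacteria from overnight BHI broth culture at 37 °C inoculated to about (10^5–10^6)/2 cfu/ml final; MIC read after incubation at 37 °C.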
# [8] = test system: Pseudomonas aeruginosa ATCC 27853; test: MIC, 2-fold dilution method in micro-well plate, P. aeruginosa; format: cell-based; details: P. aerugirnosa ATCC27853, 37° C., read-out: Minimum Inhibitory Concentration
# Method in brief: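 MIC was recorded after 37° C incubation of bacteria with serial two-fold dilutions of compound. Bacteria came from an overnight 37° C BHI culture; the final inoculum was about (10^5-10^6)/2 cfu/ml. Compounds were tested as hydrochloride salts diluted in sterile water from a 10 mg/ml stock.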
# [9] = test system: Salmonella typhimurium ATCC 14028; test: MIC, 2-fold dilution method in micro-well plate, S. typhimurium; format: cell-based; details: Salmonella enterica; S. typhisurium ATCC14028, 37° C.; read-out: Minimum Inhibitory Concentration
# Method in brief: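 Twofold broth microdilution with overnight BHI culture at 37 °C; inoculum about (10^5-10^6)/2 cfu/ml in wells. Compounds tested as hydrochloride salts from 10 mg/ml aqueous stock; MIC read after incubation at 37 °C.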
# [10] = test system: Shigella flexneri ATCC 12022; test: MIC, 2-fold dilution method in micro-well plate, S. flexneri; format: cell-based; details: S. flexneri ATCC12022, 37° C., read-out: Minimum Inhibitory Concentration
# Method in brief: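 Two-fold broth dilution in microwell plates; compounds as hydrochloride salts in sterile water. Overnight BHI-broth culture at 37 °C used as inoculum, giving about (10^5–10^6)/2 cfu/ml per well. MIC read after cultivation at 37 °C.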
# [11] = test system: Shigella sonnei ATCC 25931; test: MIC, 2-fold dilution method in micro-well plate, S. sonnei; format: cell-based; details: S. sonnei ATCC25931, 37° C., read-out: Minimum Inhibitory Concentration
# Method in brief: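 Broth microdilution with 2-fold serial dilutions of compounds as hydrochloride salts in water. Overnight BHI culture of S. sonnei at 37° C added to give about (10^5-10^6)/2 cfu/ml per well. MIC read after incubation at 37° C.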
# [12] = test system: Serratia marcescens ATCC 8100; test: MIC, 2-fold dilution method in micro-well plate, S. marcescens; format: cell-based; details: S. marcescens ATCC8100, 37° C., read-out: Minimum Inhibitory Concentration
# Method in brief: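 Broth microdilution (2-fold series) of hydrochloride salts in water; S. marcescens from overnight BHI culture at 37 °C inoculated to about (10^5-10^6)/2 cfu/ml. MIC read after cultivation at 37 °C.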
# [13] = test system: Streptococcus faecalis ATCC 19433; test: MIC, 2-fold dilution method in micro-well plate, S. faecalis ATCC 19433; format: cell-based; details: Enterococcus faecalis; S. faecalis ATCC19433, 37° C.; read-out: Minimum Inhibitory Concentration
# Method in brief: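 Broth microdilution (2-fold series) with test compounds as hydrochloride salts in sterile water; overnight BHI culture at 37 °C inoculated to about (10^5-10^6)/2 cfu/ml per well. MIC read after incubation at 37 °C.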
# [14] = test system: Streptococcus faecalis ATCC 29212; test: MIC, 2-fold dilution method in micro-well plate, S. faecalis ATCC 29212; format: cell-based; details: Enterococcus faecalis; S. faecalis ATCC29212, 37° C.; read-out: Minimum Inhibitory Concentration
# Method in brief: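 Compounds were tested as hydrochloride salts by 2-fold serial dilution in water in micro-well plates. Final inoculum was about (10^5-10^6)/2 cfu/ml from overnight BHI broth culture. MIC was read after culture at 37° C.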
# [15] = test system: Streptococcus pneumoniae ATCC 6303; test: MIC, 2-fold dilution method in micro-well plate, S. pneumoniae; format: cell-based; details: S. pneuinoniae ATCC6303, 37° C., read-out: Minimum Inhibitory Concentration
# Method in brief: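 MIC by 2-fold serial microdilution of compounds as hydrochloride salts in water, against a BHI-grown overnight culture. Final inoculum was about (10^5–10^6)/2 cfu/ml. Plates were incubated at 37° C before the minimum inhibitory concentration was read.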
# [16] = test system: Streptococcus pyrogens ATCC 19615; test: MIC, 2-fold dilution method in micro-well plate, S. pyrogens; format: cell-based; details: S. pyrogenes ATCC19615, 37° C., read-out: Minimum Inhibitory Concentration
# Method in brief: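 Inoculum from overnight 37° C brain-heart infusion culture gave roughly (10^5-10^6)/2 cfu/mL per well against two-fold serial dilutions of hydrochloride-salt compound in water. Lowest concentration inhibiting growth after 37° C incubation taken as MIC.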
# [17] = Pharmacokinetic properties in ICR mouse, oral and subcutaneous, Bio-Assay (Agar well method); format: in vivo; details: 40 mg/kg, average of four tests; for dose excreted: urine, read-out: Urine Recovery
# Protocol: The pharmacokinetic properties are tested by orally administrating and subcutaneously injecting a test compound and a substance for control to a ICR Mouse with 22 g±10% weight, drawing blood after 10, 20, 30, 45, 60, 90, 120, 150, 180 and […] and analyzed by Bio-Assay (Agar well method).
# LD50, oral, mice = details: mouse, in vivo
smiles,measurement,setting,value
"CN1CCN(c2cc3c(cc2F)c(=O)c(C(=O)O)cn3-c2ccc(F)cn2)CC1.Cl [Example 18, 1-(5-fluoro-2-pyridyl)-6-fluoro-7-(4-methyl-1-piperazinyl)-1,4-dihydro-4-oxoquinoline-3-carboxylic acid hydrochloride]",MIC,[1],0.625 µg/mL
same,MIC,[2],0.625 µg/mL
same,MIC,[3],0.25 µg/mL
same,MIC,Enterobacter cloacae,0.625 µg/mL
same,MIC,[4],0.625 µg/mL
same,MIC,[5],0.625 µg/mL
same,MIC,[6],0.625 µg/mL
same,MIC,[7],0.313 µg/mL
same,MIC,[8],1.25 µg/mL
same,MIC,[9],1.25 µg/mL
same,MIC,[10],0.625 µg/mL
same,MIC,[11],0.625 µg/mL
same,MIC,[12],1.25 µg/mL
same,MIC,[13],5 µg/mL
same,MIC,[14],2.5 µg/mL
same,MIC,[15],5 µg/mL
same,MIC,[16],5 µg/mL
same,AUC,"[17]; blood, po, P.O",42200 ng·h/mL
same,Cmax,"[17]; blood, po, P.O",9180 ng/mL
same,Tmax,"[17]; blood, po, P.O",0.94 h
same,bioavailability,"[17]; blood, po, P.O",68.6%
same,half-life,"[17]; blood, po, P.O",3.44 h
same,AUC,"[17]; blood, sc, S.C",63400 ng·h/mL
same,Cmax,"[17]; blood, sc, S.C",19600 ng/mL
same,Tmax,"[17]; blood, sc, S.C",1 h
same,half-life,"[17]; blood, sc, S.C",3.15 h
same,dose excreted,"[17]; po, P.O",28.1%
same,dose excreted,"[17]; sc, S.C",39.9%
same,LD50,"LD50, oral, mice",> 3000 mg/kg
